The test system of one test is Hedgehog pathway. Briefly: C3H10T1/2 differentiation assay (alkaline phosphatase), inhibition of the Hedgehog pathway in cell culture. The class given is cell-based. The following applies: Mus musculus. The text has this:
Hedgehog pathway specific cancer cell killing effects may be ascertained using the following assay. C3H10T1/2 cells differentiate into osteoblasts when contacted with the sonic hedgehog peptide (Shh-N). Upon differentiation; these osteoblasts produce high levels of alkaline phosphatase (AP) which can be measured in an enzymatic assay (Nakamura et al., 1997 BBRC 237: 465). Compounds that block the differentiation of C3H10T1/2 into osteoblasts (a Shh dependent event) can therefore be identified by a reduction in AP production (van der Horst et al., 2003 Bone 33: 899). The assay details are described below. The results approximate (EC50 for inhibition) of the differentiation assay is shown below in Table 1.
Mouse embryonic mesoderm fibroblasts C3H10T1/2 cells (obtained from ATCC) were cultured in Basal MEM Media (Gibco/Invitrogen) supplemented with 10% heat inactivated FBS (Hyclone), 50 units/ml penicillin and 50 ug/ml streptomycin (Gibco/Invitrogen) at 37 C with 5% CO2 in air atmosphere.
C3H10T1/2 cells were plated in 96 wells with a density of 8×10^3 cells/well. Cells were grown to confluence (72 hrs). After sonic Hedgehog (250 ng/ml), (R&D Systems) and/or compound treatment, the cells were lysed in 110 µl of lysis buffer (50 mM Tris pH 7.4, 0.1% TritonX100), plates were sonicated and lysates spun through 0.2 um PVDF plates (Corning). 40 ul of lysates was assayed for AP activity in alkaline buffer solution (Sigma) containing 1 mg/ml p-Nitrophenyl Phosphate. After incubating for 30 min at 37 C, the plates were read on an Envision plate reader at 405 nm. Total protein was quantified with a BCA protein assay kit from Pierce according to manufacturer's instructions. AP activity was normalized against total protein.

Another test deals with psoriasis lesions. The note with it: topical application; Tas et al., 2004 Dermatology 209: 126-131; cited from earlier work.
Where [1] appears, read: C3H 10T1/2, read-out: Differentiation Assay EC50 (Approximate EC50 for Inhibition).
The mark [2] stands for this setting: C3H 10T1/2, C3H10T1/2 cells, sonic Hedgehog 250 ng/ml, AP activity normalized against total protein, approximate, read-out: Differentiation Assay EC50 (Approximate EC50 for Inhibition).

Read-outs that look alike come from different tables or passages of the source. Some results are limits rather than exact numbers.

Data on 23 compounds can be found in US8236956B2, “Cyclopamine analogues and methods of use thereof” (Infinity Pharmaceuticals, Inc., priority 2004, dated 2012).

One may read the EC50 as the concentration giving half of the maximal effect. As to `C[C@@H]1CN[C@H]2[C@@H](C)[C@@]3(CC[C@H]4[C@@H]5CC=C6C[C@@H](O)CC[C@]6(C)[C@H]5CC45CC53C)O[C@@H]2C1` (some centres unmarked) [Compound 1], the EC50 with Hedgehog pathway (setting [1]) was over 500 nM.

Regarding `C[C@H]1C[C@H]2O[C@]3(CC[C@H]4[C@@H]5CC=C6C[C@@H](O)CC[C@]6(C)[C@H]5CC45CC53C)[C@H](C)[C@@H]2N(CCNC(=O)CCCCCNC(=O)CCc2ccccc2)C1` (some centres unmarked) [Compound 4], in the test with Hedgehog pathway (setting [2]), the 50% effective concentration (EC50) was under 200 nM.

As to `C[C@@H]1CN[C@H]2[C@@H](C)[C@@]3(CC[C@H]4[C@@H]5CCC6=CC(=O)CC[C@]6(C)[C@H]5CC45CC53C)O[C@@H]2C1` (some centres unmarked) [Compound 11], in the test on Hedgehog pathway (setting [1]), the EC50 is over 500 nM.

In the case of `C[C@H]1C[C@H]2O[C@]3(CC[C@H]4[C@@H]5CCC6=CC(=O)CC[C@]6(C)[C@H]5CC45CC53C)[C@H](C)[C@@H]2N(CCNC(=O)CCCCCNC(=O)CCc2ccccc2)C1` (some centres unmarked) [Compound 17], the EC50 in the test on Hedgehog pathway (setting [2]) is under 200 nM.

As to `CC1=C2C[C@H]3[C@@H](CCC4=CC(=O)CC[C@@]43C)[C@@H]2CC[C@@]2(C1)O[C@@H]1C[C@H](C)CN[C@H]1[C@H]2C` [Compound 18], the EC50 in the test on Hedgehog pathway (setting [2]) was under 200 nM.

Regarding `CC1=C2C[C@H]3[C@@H](CC=C4C[C@@H](O)CC[C@@]43C)[C@@H]2CC[C@@]2(C1)O[C@@H]1C[C@H](C)CN[C@H]1[C@H]2C` [Compound 19], the EC50 in the test on Hedgehog pathway (setting [1]) was 200 to 500 nM.

Regarding `CC1=C2C[C@H]3[C@@H](CC=C4C[C@@H](O)CC[C@@]43C)[C@@H]2CC[C@@]2(C1)O[C@@H]1C[C@H](C)CN(C)[C@H]1[C@H]2C` [Compound 20], the EC50 with Hedgehog pathway (setting [1]) is over 500 nM.

For `CC1=C2C[C@H]3[C@@H](CCC4=CC(=O)CC[C@@]43C)[C@@H]2CC[C@@]2(C1)O[C@@H]1C[C@H](C)CN(CCNC(=O)CCc3ccccc3)[C@H]1[C@H]2C` [Compound 21], the EC50 with Hedgehog pathway (setting [1]) was under 200 nM.

For `CC1=C2C[C@H]3[C@@H](CCC4=CC(=O)CC[C@@]43C)[C@@H]2CC[C@@]2(C1)O[C@@H]1C[C@H](C)CN(CCNS(=O)(=O)CCc3ccccc3)[C@H]1[C@H]2C` [Compound 24], the EC50 with Hedgehog pathway (setting [2]) is 200 to 500 nM.

With `CC1=C2C[C@H]3C(CC=C4C[C@@H](O)CC[C@@]43C)[C@@H]2CC[C@@]2(C1)O[C@@H]1C[C@H](C)CN(CCCl)[C@H]1[C@H]2C` (some centres unmarked) [Compound 27], the EC50 in the test with Hedgehog pathway (setting [2]) is over 500 nM.

In the case of `CC1=C2C[C@H]3C(CCC4=CC(=O)CC[C@@]43C)[C@@H]2CC[C@@]2(C1)O[C@@H]1C[C@H](C)CN(CCCl)[C@H]1[C@H]2C` (some centres unmarked) [Compound 28], in the test on Hedgehog pathway (setting [2]), the half-maximal effective concentration (EC50) was over 500 nM.

Consider `COCCOCCN1C[C@@H](C)C[C@H]2O[C@]3(CC[C@@H]4C(=C(C)C3)C[C@H]3C4CCC4=CC(=O)CC[C@@]43C)[C@H](C)[C@@H]21` (some centres unmarked) [Compound 29], for which the EC50 with Hedgehog pathway (setting [2]) is under 200 nM.

Consider `CC1=C2C[C@H]3[C@@H](CC=C4C[C@@H](O)CC[C@@]43C)[C@@H]2CC[C@@]2(C1)O[C@@H]1C[C@H](C)CN(CCNC(=O)CNC(=O)CCc3ccccc3)[C@H]1[C@H]2C` [Compound 30], for which the EC50 in the test with Hedgehog pathway (setting [1]) was under 200 nM.

As for `COCCOCCOCCOCCN1C[C@@H](C)C[C@H]2O[C@]3(CC[C@@H]4C(=C(C)C3)C[C@H]3[C@H]4CCC4=CC(=O)CC[C@@]43C)[C@H](C)[C@@H]21` [Compound 31], in the test on Hedgehog pathway (setting [2]), the EC50 is under 200 nM.

For the compound `COCCOCCOCCN1C[C@@H](C)C[C@H]2O[C@]3(CC[C@@H]4C(=C(C)C3)C[C@H]3[C@H]4CCC4=CC(=O)CC[C@@]43C)[C@H](C)[C@@H]21` [Compound 33], the EC50 with Hedgehog pathway (setting [2]) is under 200 nM.

In the case of `CC1=C2C[C@H]3[C@@H](CCC4=CC(=O)CC[C@@]43C)[C@@H]2CC[C@@]2(C1)O[C@@H]1C[C@H](C)CN(Cc3ccccc3)[C@H]1[C@H]2C` [Compound 35], the EC50 in the test on Hedgehog pathway (setting [2]) was under 200 nM.

On to `CC1=C2C[C@H]3[C@@H](CCC4=CC(=O)CC[C@@]43C)[C@@H]2CC[C@@]2(C1)O[C@@H]1C[C@H](C)CN(Cc3ccc(Oc4ccccc4)cc3)[C@H]1[C@H]2C` [Compound 37], for which the EC50 in the test with Hedgehog pathway (setting [2]) is over 500 nM.

On to `CC1=C2C[C@H]3[C@@H](CCC4=CC(=O)CC[C@@]43C)[C@@H]2CC[C@@]2(C1)O[C@@H]1C[C@H](C)CN(CCO)[C@H]1[C@H]2C` [Compound 39], for which, in the test with Hedgehog pathway (setting [1]), the EC50 is over 500 nM.

On to `COCCOCCN1C[C@@H](C)C[C@H]2O[C@]3(CC[C@@H]4C(=C(C)C3)C[C@H]3[C@H]4CCC4=CC(=O)CC[C@@]43C)[C@H](C)[C@@H]21` [Compound 41], for which the EC50 with Hedgehog pathway (setting [2]) is under 200 nM.

For `CC1=C2C[C@H]3[C@@H](CCC4=CC(=O)CC[C@@]43C)[C@@H]2CC[C@@]2(C1)O[C@@H]1C[C@H](C)CN(CCOCCOCc3ccccc3)[C@H]1[C@H]2C` [Compound 43], in the test on Hedgehog pathway (setting [2]), the EC50 is 200 to 500 nM.

For the compound `CC1=C2C[C@H]3[C@@H](CCC4=CC(=O)CC[C@@]43C)[C@@H]2CC[C@@]2(C1)O[C@@H]1C[C@H](C)CN(CCN(C)C)[C@H]1[C@H]2C` [Compound 45], the concentration giving a half-maximal response (EC50) in the test with Hedgehog pathway (setting [1]) lay in the range of 200 to 500 nM.

For `CC1=C2C[C@H]3[C@@H](CCC4=CC(=O)CC[C@@]43C)[C@@H]2CC[C@@]2(C1)O[C@@H]1C[C@H](C)CN(CC(=O)NCCCc3ccccc3)[C@H]1[C@H]2C` [Compound 47], in the test with Hedgehog pathway (setting [2]), the EC50 lay in the range of 200 to 500 nM.

Consider `CC1=C2C[C@H]3[C@@H](CC=C4C[C@@H](O)CC[C@@]43C)[C@@H]2CC[C@]12O[C@@H]1C[C@H](C)CN[C@H]1[C@H]2C` [cyclopamine], for which, in the test with psoriasis lesions, the “effect on psoriasis lesions” value is reported as “full or partial regression of the lesion”.
